# ChEMBL document CHEMBL3885861, “Open TG-GATES”
# Organism: Rattus norvegicus
# Assay: Open TG-GATES - Regimen: Daily Repeat
# Format: toxicity, organism-based, Sprague-Dawley
# Parameters: regimen Daily Repeat, gender Male, age 6 weeks
# Conditions: in vivo, po, 15 mg/kg, route gavage, dose level Middle; for APTT / Bas / Eos / Fbg / Hb / Ht / Lym / MCH / MCHC / MCV / Mono / Neu / PT / Plat / RBC / Ret / WBC: tissue Blood; for KIDNEY_L / KIDNEY_R / KIDNEY_TOTAL: tissue Kidney; for LIVER: tissue Liver; for A/G / ALP / ALT / AST / BUN / CRE / Ca / Cl / DBIL / GLC / IP / K / LDH / Na / PL / RALB / TBIL / TC / TG / TP / gamma-GTP: tissue Plasma
compound,measurement,setting,value
CC1=C(CC(=O)O)c2cc(F)ccc2/C1=C\c1ccc([S+](C)[O-])cc1 (configuration not stated),TERMINAL_BW,"72 h, time 3 day",235.3 g
same,APTT,"72 h, time 3 day",17.2 s
same,Bas,"72 h, time 3 day",0%
same,Eos,"72 h, time 3 day",1%
same,Fbg,"72 h, time 3 day",309 mg/dL
same,Hb,"72 h, time 3 day",14.2 g/dL
same,Ht,"72 h, time 3 day",43%
same,Lym,"72 h, time 3 day",75.8%
same,MCH,"72 h, time 3 day",21.2 pg
same,MCHC,"72 h, time 3 day",33%
same,MCV,"72 h, time 3 day",64.3 fL
same,Mono,"72 h, time 3 day",2.6%
same,Neu,"72 h, time 3 day",20%
same,PT,"72 h, time 3 day",13.7 s
same,Plat,"72 h, time 3 day",120.1 x10_4/uL
same,RBC,"72 h, time 3 day",671.2 x10_4/ul
same,Ret,"72 h, time 3 day",7.1%
same,WBC,"72 h, time 3 day",90 x10_2/uL
same,KIDNEY_L,"72 h, time 3 day",1 g
same,KIDNEY_R,"72 h, time 3 day",1 g
same,KIDNEY_TOTAL,"72 h, time 3 day",2 g
same,LIVER,"72 h, time 3 day",11.3 g
same,A/G,"72 h, time 3 day",0.9
same,ALP,"72 h, time 3 day",1549.6 IU/L
same,ALT,"72 h, time 3 day",44.2 IU/L
same,AST,"72 h, time 3 day",72.4 IU/L
same,BUN,"72 h, time 3 day",15.8 mg/dL
same,CRE,"72 h, time 3 day",0.2 mg/dL
same,Ca,"72 h, time 3 day",11.1 mg/dL
same,Cl,"72 h, time 3 day",106 meq/L
same,DBIL,"72 h, time 3 day",0.012 mg/dL
same,GLC,"72 h, time 3 day",185.2 mg/dL
same,IP,"72 h, time 3 day",7.3 mg/dL
same,K,"72 h, time 3 day",4 meq/L
same,LDH,"72 h, time 3 day",93.8 IU/L
same,Na,"72 h, time 3 day",142.8 meq/L
same,PL,"72 h, time 3 day",159 mg/dL
same,RALB,"72 h, time 3 day",2.7 g/dL
same,TBIL,"72 h, time 3 day",0.018 mg/dL
same,TC,"72 h, time 3 day",85.2 mg/dL
same,TG,"72 h, time 3 day",98.6 mg/dL
same,TP,"72 h, time 3 day",5.6 g/dL
same,gamma-GTP,"72 h, time 3 day",1 IU/L
same,TERMINAL_BW,"[…], time 7 day",268.9 g
same,TERMINAL_BW,"[…], time 14 day",338.3 g
same,TERMINAL_BW,"[…], time 28 day",411.4 g
same,APTT,"[…], time 7 day",17.1 s
same,Bas,"[…], time 7 day",0%
same,Eos,"[…], time 7 day",1%
same,Fbg,"[…], time 7 day",295.2 mg/dL
same,Hb,"[…], time 7 day",14.4 g/dL
same,Ht,"[…], time 7 day",42.6%
same,Lym,"[…], time 7 day",77.6%
same,MCH,"[…], time 7 day",21.2 pg
same,MCHC,"[…], time 7 day",33.8%
same,MCV,"[…], time 7 day",62.6 fL
same,Mono,"[…], time 7 day",2.4%
same,Neu,"[…], time 7 day",18.8%
same,PT,"[…], time 7 day",13.5 s
same,Plat,"[…], time 7 day",137.1 x10_4/uL
same,RBC,"[…], time 7 day",681.2 x10_4/ul
same,Ret,"[…], time 7 day",6.1%
same,WBC,"[…], time 7 day",102.7 x10_2/uL
same,APTT,"[…], time 14 day",18 s
same,Bas,"[…], time 14 day",0%
same,Eos,"[…], time 14 day",1%
same,Fbg,"[…], time 14 day",325.2 mg/dL
same,Hb,"[…], time 14 day",14.6 g/dL
same,Ht,"[…], time 14 day",42.9%
same,Lym,"[…], time 14 day",73.2%
same,MCH,"[…], time 14 day",20.5 pg
same,MCHC,"[…], time 14 day",34.1%
same,MCV,"[…], time 14 day",60 fL
same,Mono,"[…], time 14 day",2.2%
same,Neu,"[…], time 14 day",23%
same,PT,"[…], time 14 day",13.7 s
same,Plat,"[…], time 14 day",131.8 x10_4/uL
same,RBC,"[…], time 14 day",715.4 x10_4/ul
same,Ret,"[…], time 14 day",4.6%
same,WBC,"[…], time 14 day",104.2 x10_2/uL
same,APTT,"[…], time 28 day",20.6 s
same,Bas,"[…], time 28 day",0%
same,Eos,"[…], time 28 day",0.8%
same,Fbg,"[…], time 28 day",263.6 mg/dL
same,Hb,"[…], time 28 day",14.9 g/dL
same,Ht,"[…], time 28 day",45.8%
same,Lym,"[…], time 28 day",76%
same,MCH,"[…], time 28 day",18.9 pg
same,MCHC,"[…], time 28 day",32.6%
same,MCV,"[…], time 28 day",58 fL
same,Mono,"[…], time 28 day",2%
same,Neu,"[…], time 28 day",20.8%
same,PT,"[…], time 28 day",12.6 s
same,Plat,"[…], time 28 day",111.8 x10_4/uL
same,RBC,"[…], time 28 day",792.6 x10_4/ul
same,Ret,"[…], time 28 day",3.7%
same,WBC,"[…], time 28 day",112.4 x10_2/uL
same,KIDNEY_L,"[…], time 7 day",1.2 g
same,KIDNEY_R,"[…], time 7 day",1.1 g
same,KIDNEY_TOTAL,"[…], time 7 day",2.3 g
same,KIDNEY_L,"[…], time 14 day",1.3 g
same,KIDNEY_R,"[…], time 14 day",1.2 g
same,KIDNEY_TOTAL,"[…], time 14 day",2.5 g
same,KIDNEY_L,"[…], time 28 day",1.4 g
same,KIDNEY_R,"[…], time 28 day",1.4 g
same,KIDNEY_TOTAL,"[…], time 28 day",2.8 g
same,LIVER,"[…], time 7 day",12.6 g
same,LIVER,"[…], time 14 day",15.2 g
same,LIVER,"[…], time 28 day",17.1 g
same,A/G,"[…], time 7 day",0.9
same,ALP,"[…], time 7 day",1603.8 IU/L
same,ALT,"[…], time 7 day",41.2 IU/L
same,AST,"[…], time 7 day",66.8 IU/L
same,BUN,"[…], time 7 day",17.2 mg/dL
same,CRE,"[…], time 7 day",0.2 mg/dL
same,Ca,"[…], time 7 day",11 mg/dL
same,Cl,"[…], time 7 day",104 meq/L
same,DBIL,"[…], time 7 day",0.016 mg/dL
same,GLC,"[…], time 7 day",183 mg/dL
same,IP,"[…], time 7 day",7.3 mg/dL
same,K,"[…], time 7 day",4.3 meq/L
same,LDH,"[…], time 7 day",87.4 IU/L
same,Na,"[…], time 7 day",141 meq/L
same,PL,"[…], time 7 day",187.6 mg/dL
same,RALB,"[…], time 7 day",2.8 g/dL
same,TBIL,"[…], time 7 day",0.016 mg/dL
same,TC,"[…], time 7 day",91.6 mg/dL
same,TG,"[…], time 7 day",171.6 mg/dL
same,TP,"[…], time 7 day",5.9 g/dL
same,gamma-GTP,"[…], time 7 day",1 IU/L
same,A/G,"[…], time 14 day",0.9
same,ALP,"[…], time 14 day",1475.4 IU/L
same,ALT,"[…], time 14 day",42.6 IU/L
same,AST,"[…], time 14 day",65.6 IU/L
same,BUN,"[…], time 14 day",17.4 mg/dL
same,CRE,"[…], time 14 day",0.3 mg/dL
same,Ca,"[…], time 14 day",10.9 mg/dL
same,Cl,"[…], time 14 day",105.6 meq/L
same,DBIL,"[…], time 14 day",0.018 mg/dL
same,GLC,"[…], time 14 day",183 mg/dL
same,IP,"[…], time 14 day",6.8 mg/dL
same,K,"[…], time 14 day",3.8 meq/L
same,LDH,"[…], time 14 day",75.4 IU/L
same,Na,"[…], time 14 day",143.4 meq/L
same,PL,"[…], time 14 day",173.4 mg/dL
same,RALB,"[…], time 14 day",2.8 g/dL
same,TBIL,"[…], time 14 day",0.042 mg/dL
same,TC,"[…], time 14 day",81.4 mg/dL
same,TG,"[…], time 14 day",191 mg/dL
same,TP,"[…], time 14 day",6 g/dL
same,gamma-GTP,"[…], time 14 day",1 IU/L
same,A/G,"[…], time 28 day",0.8
same,ALP,"[…], time 28 day",1137.2 IU/L
same,ALT,"[…], time 28 day",35.8 IU/L
same,AST,"[…], time 28 day",62 IU/L
same,BUN,"[…], time 28 day",18.2 mg/dL
same,CRE,"[…], time 28 day",0.3 mg/dL
same,Ca,"[…], time 28 day",10.7 mg/dL
same,Cl,"[…], time 28 day",103.8 meq/L
same,DBIL,"[…], time 28 day",0.008 mg/dL
same,GLC,"[…], time 28 day",178.4 mg/dL
same,IP,"[…], time 28 day",6.9 mg/dL
same,K,"[…], time 28 day",3.8 meq/L
same,LDH,"[…], time 28 day",64.6 IU/L
same,Na,"[…], time 28 day",142.8 meq/L
same,PL,"[…], time 28 day",153.4 mg/dL
same,RALB,"[…], time 28 day",2.8 g/dL
same,TBIL,"[…], time 28 day",0.076 mg/dL
same,TC,"[…], time 28 day",74.8 mg/dL
same,TG,"[…], time 28 day",162.8 mg/dL
same,TP,"[…], time 28 day",6.2 g/dL
same,gamma-GTP,"[…], time 28 day",1 IU/L
